# Assay results as given in patent US7148215B2, “Chemical compounds” (Aventis Pharma S.A., priority 2001, dated 2006).
# Where a name gives a salt, the structure may show the parent alone.
# Tests used:
# [1] = system: rat cerebellar granule neurons; test: Effect of JNK inhibitors on LY294002-induced cytotoxicity in cerebellar granule cells (MTT); format: cell-based
# Procedure: 7. Effect of JNK Inhibitors on Cytotoxicity in Cerebellar Granule Cells
# LY294002 is a reversible inhibitor of PI3K and activates JNKs with subsequent cell death. We have investigated the ability of the JNK inhibitors to protect against LY294002-induced cell death in a cerebellar granule cell preparation.
# Primary cerebellar cell cultures were prepared from 7-day-old Sprague-Dawley rats. Cerebella were carefully collected, dissected free of meninges and cut into 5–7 parts. Tissues were gently mechanically dissociated after digestion with VERSENE (5 minutes, 37° C.). The cells were seed onto 96-well plates pre-coated with poly-D-lysine (Becton-Dickinson) at a final density of 10^5 cells per well. Cultures were maintained at 37° C. in a humidified atmosphere with 5% CO2 and used after the 9th day of culture in DMEM medium complemented with 5% fetal calf serum, 5% horse serum and 30 mM potassium chloride in the presence of an anti-mitotic (10 μM cytosine arabinoside). The drugs were directly added to the culture at the indicated concentrations for 24 hours. Neuronal viability was assessed quantitatively by the colorimetric measurement of Mosmann or MTT assay (1983, J. Immunol. Methods, 65, 55–63). Each condition was tested in sextuplicate or triplicate and the mean values obtained analyzed statistically by one-way ANOVA, followed by Dunnett's multiple comparison test. […]
melting point,Structure (SMILES),other results
286 to 288 °C,N#Cc1c(C(N)=O)c2n(c1-c1ccccc1)CCN(C(=O)Nc1ccc(C(=O)O)cc1)C2,
205 to 206 °C,NC(=O)c1c(Cl)c(-c2cccnc2)n2c1CN(S(=O)(=O)c1ccc(C(F)(F)F)cc1)CC2,
176 to 178 °C,COc1ccc(NC(=S)N2CCn3c(c(C(N)=O)c(Cl)c3-c3ccccc3)C2)cc1,
266 to 267 °C,NC(=O)c1c(Cl)c(C2CC2)n2c1CN(C(=O)Nc1ccc(F)cc1)CC2 [Example 3],
237 to 239 °C,NC(=O)c1c(Cl)c(C2CC2)n2c1CNCC2 (as salt: trifluoroacetic acid salt),
275 to 279 °C,N#Cc1c(C(N)=O)c2n(c1-c1cccnc1)CCN(C(=O)Nc1ccc(F)cc1)C2,
240 to 242 °C,NC(=O)c1c(Cl)c(-c2ccccc2)n2c1CN(S(=O)(=O)c1cccs1)CC2,
181 to 182 °C,NC(=O)c1c(Cl)c(-c2ccccc2)n2c1CN(C(=O)CCC1CCCCC1)CC2,
230 to 231 °C,NC(=O)c1c(Cl)c(C2CC2)n2c1CN(C(=O)Nc1ccc(F)cc1)CC2 [Example 16(a)],
200 to 202 °C (dec.),N#Cc1c(C(N)=O)c2n(c1C1CCOCC1)CCN(C(=O)Nc1cccc(C(F)(F)F)c1)C2,
196 to 198 °C,NC(=O)c1c(Cl)c(-c2ccccc2)n2c1CN(C(=O)Oc1ccccc1)CC2,
197 to 199 °C,N#Cc1c(C(N)=O)c2n(c1C1CC1)CCN(C(=O)Nc1ccc(C(=O)NCCN3CCOCC3)cc1)C2,
235 to 238 °C (dec.),Cc1ccc(-c2c(Cl)c(C(N)=O)c3n2CCN(C(=O)Nc2ccc(F)cc2)C3)cn1,
,"O=c1cc(N2CCOCC2)oc2c(-c3ccccc3)cccc12 [LY294002, reference compound]","neurotoxic effect on cerebellar granule neurons ([1]; 3–100 μM added to cells cultured in high potassium medium, FIG. 1): induced neuronal death"
229 to 231 °C,NC(=O)c1c(Cl)cn2c1CN(C(=O)Nc1ccc(F)cc1)CC2,
196 to 198 °C,N#Cc1ccc(NC(=O)N2CCn3c(c(C(N)=O)c(Cl)c3C3CC3)C2)cc1,
296 to 298 °C (dec.),N#Cc1c(C(N)=O)c2n(c1C1CCOCC1)CCN(C(=O)Nc1ccc3ncccc3c1)C2,

melting point,Structure (SMILES),other results
243 to 246 °C (dec.),N#Cc1c(C(N)=O)c2n(c1C(F)(F)F)CCN(C(=O)Nc1ccc(C(F)(F)F)cc1)C2,
253 to 256 °C,N#Cc1c(C(N)=O)c2n(c1C1CC1)CCN(S(=O)(=O)c1ccc(C(F)(F)F)cc1)C2,
213 to 214 °C,NC(=O)c1c(Cl)cn2c1CN(S(=O)(=O)c1ccc(-c3ccccn3)s1)CC2,
261 to 263 °C,NC(=O)c1c(Cl)c(-c2ccccc2)n2c1CN(C(=O)Nc1cccnc1)CC2,
218 to 221 °C,CS(=O)(=O)N1CCC(c2c(C#N)c(C(N)=O)c3n2CCN(C(=O)Nc2ccc(C#N)cc2)C3)CC1,
246 to 248 °C,COc1ccc(NC(=O)N2CCn3c(c(C(N)=O)c(Cl)c3-c3ccccc3)C2)cc1,
149 to 153 °C,N#Cc1c(C(N)=O)c2n(c1C1CC1)CCN(C(=O)Nc1ccc(C(F)(F)F)nc1)C2,
207 to 208 °C,NC(=O)c1c(Cl)c(-c2ccccc2)n2c1CN(S(=O)(=O)Nc1ccccc1)CC2,
229 to 231 °C,Cc1c(Cl)c(C(N)=O)c2n1CCN(C(=O)Nc1cccc(F)c1)C2,
249 to 250 °C,NC(=O)c1c(Cl)cn2c1CN(C(=O)Nc1ccc(-c3ccccn3)s1)CC2,
291 to 296 °C,N#Cc1ccc(NC(=O)N2CCn3c(c(C(N)=O)c(C#N)c3-c3cccnc3)C2)cc1,
176 to 180 °C,NC(=O)c1c(Cl)c(-c2ccccc2)n2c1CN(C(=O)Cc1ccccc1O)CC2,
170 °C,COc1ccc(N/C(=N\C#N)N2CCn3c(c(C(N)=O)c(Cl)c3-c3ccccc3)C2)cc1,
177 to 180 °C,CS(=O)(=O)N1CCC(c2c(C#N)c(C(N)=O)c3n2CCN(C(=O)Nc2ccc(F)cc2)C3)CC1,
170 to 173 °C,COc1ccc(NC(=O)N2CCn3c(-c4ccccc4)cc(C(N)=O)c3C2)cc1,
221 to 222 °C,Cc1ccc(-c2c(Cl)c(C(N)=O)c3n2CCN(C(=O)Nc2ccc4ncccc4c2)C3)cn1,
219 to 220 °C,N#Cc1c(C(N)=O)c2n(c1-c1ccccc1)CCN(C(=O)Nc1cccc(F)c1)C2,

Structure (SMILES),melting point,other results
"N#Cc1c(C(N)=O)c2n(c1C1CC1)CCN(C(=O)Nc1ccc(F)cc1)C2 [Example 9(a), 7-Cyano-6-cyclopropyl-3,4-dihydro-1H-pyrrolo[1,2-a]pyrazine-2,8-dicarboxylic acid 8-amide 2-[(4-fluorophenyl)amide]]",232 to 234 °C,"IC50 ([1]; Neuron, LY294002 30 μM, rat cerebellar granule cells after 9 days of culture, 24 hours, MTT, FIG. 2, read-out: protection against LY294002-induced toxicity, IC50): 7 µM"
